Laboratory results: US20090133318A1, “Anthranilamide insecticides” (priority 2004, published 2009)

Legend:
Assay type in all cases: in vivo
[1] = tested on: corn planthopper (Peregrinus maidis); test: Test F: control of corn planthopper through contact and/or systemic means, corn plant (mixtures)
Procedure: (§1) Test compounds or mixtures were formulated using a solution containing 10% acetone, 90% water and 300 ppm X-77™ Spreader Lo-Foam Formula non-ionic surfactant containing alkylarylpolyoxyethylene, free fatty acids, glycols and 2-propanol (Loveland Industries, Inc. Greeley, Colo., USA). The formulated compounds or mixtures were applied in 1 mL of liquid through a SUJ2 atomizer nozzle with ⅛ JJ custom body (Spraying Systems Co. Wheaton, Ill., USA) positioned 1.27 cm (0.5 inches) above the top of each test unit. All experimental compounds in these tests were sprayed at 10 ppm replicated three times. For experimental mixtures in these tests, to obtain the desired mixture concentrations of each compound, twice the desired concentration of each of the two mixture partner compounds were mixed together in equal volumes.
For evaluating control of corn planthopper (Peregrinus maidis) through contact and/or systemic means, each test unit consisted of a small open cylindrical container with a 3- to 4 day-old corn (maize) plant (spike) inside. White sand was added to the top of the soil prior to application. Test mixtures were formulated and sprayed with 3 replications as described for Test A. After spraying, the test units were allowed to dry for 1 hour before they were post-infested with 10 to 20 corn planthoppers (18- to 20-day-old nymphs) by sprinkling them onto the sand with a salt shaker. A black, screened cap was placed on the top of each container. The test units were held for 6 days in a growth chamber at 19-21° C. and 50-70% relative humidity. Dead and total number of corn planthoppers were counted in each test unit to determine percent mortality.

[2] = tested on: green peach aphid (Myzus persicae); test: Test C: control of green peach aphid through contact and/or systemic means, radish plant
Procedure: as §1
For evaluating control of green peach aphid (Myzus persicae) through contact and/or systemic means, the test unit consisted of a small open container with a 12- to 15-day-old radish plant inside. This was pre-infested by placing on a leaf of the test plant 30-40 aphids on a piece of leaf excised from a culture plant (cut-leaf method). The larvae moved onto the test plant as the leaf piece desiccated. After pre-infestation, the soil of the test unit was covered with a layer of sand.
All test compounds were formulated and sprayed at 50 ppm as described for Test A and replicated three times. Test mixtures were formulated as described for Test A and replicated three times. After spraying of the formulated test compound or mixture, each test unit was allowed to dry for 1 hour and then a black, screened cap was placed on top. The test units were held for 6 days in a growth chamber at 19-21° C. and 50-70% relative humidity. Dead and total number of aphids were counted in each test unit to determine percent mortality.

[3] = tested on: diamondback moth (Plutella xylostella); test: Test A: control of diamondback moth, foliar spray on radish plant
From the text: For evaluating control of diamondback moth (Plutella xylostella) the test unit consisted of a small open container with a 12-14-day-old radish plant inside. This was pre-infested with 10-15 neonate larvae on a piece of insect diet by use of a core sampler to remove a plug from a sheet of hardened insect diet having many larvae growing on it and transfer the plug containing larvae and diet to the test unit. The larvae moved onto the test plant as the diet plug dried out.
as §1, with “All experimental compounds in these tests were sprayed at 10 ppm replicated three times.” left out
After spraying of the formulated test compound or mixture, each test unit was allowed to dry for 1 hour and then a black, screened cap was placed on top. The test units were held for 6 days in a growth chamber at 25° C. and 70% relative humidity. Plant feeding damage was then visually assessed based on foliage consumed.

[4] = tested on: western flower thrips (Frankliniella occidentalis Pergande); test: Test G: control of western flower thrips through contact and/or systemic means, bean plant (mixtures)
Procedure: as §1
For evaluating control of the western flower thrips (Frankliniella occidentalis Pergande) through contact and/or systemic means, each test unit consisted of a small open container with a 5- to 7-day-old bean (var. Soleil) plant inside.
Test mixtures were formulated and sprayed with 3 replications as described for Test A. After spraying, the test units were allowed to dry for 1 hour, 22 to 27 adult thrips were added to each unit and then a black, screened cap was placed on top. The test units were held for 7 days at 25° C. and 45-55% relative humidity. The amount of plant damage for each test unit was rated to determine the percent plant protection.

Cc1cc(Cl)cc(C(=O)NCC2CC2)c1NC(=O)c1cc(Br)nn1-c1ncccc1Cl [Compound 2]
Mortality (obs) ([1]; 30 ppm): 2%
Mortality (obs) ([1]; 100 ppm): 10%
Mortality (obs) ([1]; 250 ppm): 31%
Mortality (obs) ([2]; 8 ppm): 4%
Mortality (obs) ([2]; 50 ppm): 17%
Mortality (obs) ([2]; 250 ppm): 76%
% protection (obs) ([3]; 0.03 ppm): 37%
% protection (obs) ([3]; 0.04 ppm): 77%
% protection (obs) ([3]; 0.06 ppm): 93%
% protection (obs) ([4]; 5 ppm): 20%
% protection (obs) ([4]; 150 ppm): 27%
% protection (obs) ([4]; 250 ppm): 53%

Imidacloprid
Mortality (obs) ([1]; 0.08 ppm): 2%
Mortality (obs) ([1]; 0.2 ppm): 10%
Mortality (obs) ([1]; 0.8 ppm): 71%
Mortality (obs) ([2]; 0.08 ppm): 5%
Mortality (obs) ([2]; 0.15 ppm): 44%
Mortality (obs) ([2]; 0.3 ppm): 50%
% protection (obs) ([3]; 0.8 ppm): 73%
% protection (obs) ([3]; 17 ppm): 80%
% protection (obs) ([3]; 50 ppm): 90%
% protection (obs) ([4]; 11 ppm): 27%
% protection (obs) ([4]; 77 ppm): 40%
% protection (obs) ([4]; 250 ppm): 90%

Thiamethoxam
Mortality (obs) ([1]; 0.2 ppm): 19%
Mortality (obs) ([1]; 0.4 ppm): 73%
Mortality (obs) ([1]; 0.6 ppm): 100%
Mortality (obs) ([2]; 0.2 ppm): 44%
Mortality (obs) ([2]; 0.4 ppm): 73%
Mortality (obs) ([2]; 0.6 ppm): 87%
% protection (obs) ([3]; 30 ppm): 43%
% protection (obs) ([3]; 40 ppm): 73%
% protection (obs) ([3]; 50 ppm): 90%
% protection (obs) ([4]; 5 ppm): 0%
% protection (obs) ([4]; 70 ppm): 77%
% protection (obs) ([4]; 250 ppm): 100%
